Assay results reported in patent US20180148418A1, “AMIDO-SUBSTITUTED CYCLOHEXANE DERIVATIVES” (Bayer Pharma Aktiengesellschaft, priority 2015, published 2018).

Legend:
TNKS1 = target: T1, TNKS1 (Homo sapiens, UniProt O95271); assay: TNKS1 Assay B (auto-parsylation, [3H]-NAD+ SPA); type: biochemical; conditions: 6 nM TNKS1, auto-parsylation, over night at room temperature
T1 construct: purchased BPS Bioscience, San Diego, USA 80579 (TNKS1 Histone Ribosylation Assay Kit)
T1 sequence (O95271 1-1327): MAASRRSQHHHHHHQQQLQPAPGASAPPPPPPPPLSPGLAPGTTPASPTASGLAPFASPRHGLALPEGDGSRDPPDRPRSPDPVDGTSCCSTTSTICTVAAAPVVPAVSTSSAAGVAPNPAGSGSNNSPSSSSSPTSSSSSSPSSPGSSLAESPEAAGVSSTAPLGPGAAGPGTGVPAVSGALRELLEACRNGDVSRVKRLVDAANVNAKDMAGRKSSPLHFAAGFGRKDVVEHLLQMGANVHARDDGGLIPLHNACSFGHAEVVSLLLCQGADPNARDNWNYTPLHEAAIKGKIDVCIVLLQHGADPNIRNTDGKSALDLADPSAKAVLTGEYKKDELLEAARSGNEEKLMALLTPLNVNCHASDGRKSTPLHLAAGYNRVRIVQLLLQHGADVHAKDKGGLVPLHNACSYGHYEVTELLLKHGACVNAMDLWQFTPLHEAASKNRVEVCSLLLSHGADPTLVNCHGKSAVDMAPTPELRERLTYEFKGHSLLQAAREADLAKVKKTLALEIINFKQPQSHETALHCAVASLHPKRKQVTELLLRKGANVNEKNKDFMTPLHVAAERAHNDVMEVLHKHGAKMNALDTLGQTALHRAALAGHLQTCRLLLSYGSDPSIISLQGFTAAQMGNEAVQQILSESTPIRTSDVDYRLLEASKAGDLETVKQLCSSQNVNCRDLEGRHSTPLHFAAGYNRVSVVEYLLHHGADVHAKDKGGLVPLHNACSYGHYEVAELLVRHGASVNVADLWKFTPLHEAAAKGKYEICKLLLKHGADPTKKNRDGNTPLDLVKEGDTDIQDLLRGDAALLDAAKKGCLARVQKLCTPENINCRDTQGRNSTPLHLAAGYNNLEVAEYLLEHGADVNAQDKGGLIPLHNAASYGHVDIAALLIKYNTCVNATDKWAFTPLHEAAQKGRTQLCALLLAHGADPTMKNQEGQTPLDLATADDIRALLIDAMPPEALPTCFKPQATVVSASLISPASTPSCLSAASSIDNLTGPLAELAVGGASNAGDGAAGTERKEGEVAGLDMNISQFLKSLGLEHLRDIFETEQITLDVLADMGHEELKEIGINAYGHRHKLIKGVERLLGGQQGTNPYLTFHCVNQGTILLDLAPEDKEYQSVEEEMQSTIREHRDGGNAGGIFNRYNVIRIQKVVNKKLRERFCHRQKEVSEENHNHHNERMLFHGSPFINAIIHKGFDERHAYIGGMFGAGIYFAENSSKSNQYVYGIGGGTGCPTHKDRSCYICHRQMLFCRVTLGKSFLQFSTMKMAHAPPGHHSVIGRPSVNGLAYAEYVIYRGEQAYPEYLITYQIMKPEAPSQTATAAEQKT

[1] = tested on: HEK293 cells cotransfected with the FOP control vector; assay: HEK293 FOP assay (control reporter with non-functional TCF elements); type: cell-based; conditions: Homo sapiens, 16 hours
Outline: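 Stable HEK293 line carrying FOP control reporter (randomized non-functional TCF sites, with pcDNA3), Geneticin-selected, plated 24 h before assay. Stimulated with recombinant human Wnt-3a (2500-5 ng/ml) and compounds 50 μM–15 nM (3.16-fold steps) in CAFTY buffer pH 7.4 with 2 mM Ca2+, 0.01% BSA, run parallel to TOP line.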

SMILES | IC50 (TNKS1) [µM] | IC50 [1] [µM]
C[C@]1(C(=O)Nc2ccc(F)cc2Cl)CC[C@@H](NC(=O)c2cnn3cccnc23)CC1 [Example 180, N-{cis-4-[(2-chloro-4-fluorophenyl)carbamoyl]-4-methylcyclohexyl}pyrazolo[1,5-a]pyrimidine-3-carboxamide] | > 10 | ≥ 50
CNC(=O)c1[nH]cnc1C(=O)N[C@H]1CC[C@@](C)(C(=O)Nc2ccc(F)cc2Cl)CC1 [Example 181, N^4-{cis-4-[(2-chloro-4-fluorophenyl)carbamoyl]-4-methylcyclohexyl}-N^5-methyl-1H-imidazole-4,5-dicarboxamide] | > 10 | 24
CC1CN(C(=O)c2nc[nH]c2C(=O)N[C@H]2CC[C@@]3(CCN(c4ccc(F)cc4Cl)C3=O)CC2)CCS(=O)(=O)C1 (stereo partly drawn) [Example 183, N-[(trans)-2-(2-chloro-4-fluorophenyl)-1-oxo-2-azaspiro[4.5]dec-8-yl]-4-[(6-methyl-1,1-dioxido-1,4-thiazepan-4-yl)carbonyl]-1H-imidazole-5-carboxamide] | 0.7 | ≥ 50
CN1CC2(CCN(C(=O)c3nc[nH]c3C(=O)N[C@H]3CC[C@@]4(CCN(c5ccc(F)cc5Cl)C4=O)CC3)C2)C1 [Example 184, N-[(trans)-2-(2-chloro-4-fluorophenyl)-1-oxo-2-azaspiro[4.5]dec-8-yl]-4-[(2-methyl-2,6-diazaspiro[3.4]oct-6-yl)carbonyl]-1H-imidazole-5-carboxamide] | 0.01 | ≥ 50
CN1CC2(C1)CN(C(=O)c1nc[nH]c1C(=O)N[C@H]1CC[C@@]3(CCN(c4ccc(F)cc4Cl)C3=O)CC1)C2 [Example 185, N-[(trans)-2-(2-chloro-4-fluorophenyl)-1-oxo-2-azaspiro[4.5]dec-8-yl]-4-[(6-methyl-2,6-diazaspiro[3.3]hept-2-yl)carbonyl]-1H-imidazole-5-carboxamide] | 0.0087 | ≥ 50
NC(=O)c1nc[nH]c1C(=O)N[C@H]1CC[C@@]2(CCN(c3ccc(F)cc3Cl)C2=O)CC1 [Example 186, N^5-[(trans)-2-(2-chloro-4-fluorophenyl)-1-oxo-2-azaspiro[4.5]dec-8-yl]-1H-imidazole-4,5-dicarboxamide] | 0.018 | ≥ 50
CN1CC(NC(=O)c2nc[nH]c2C(=O)N[C@H]2CC[C@@]3(CCN(c4ccc(F)cc4Cl)C3=O)CC2)C1 [Example 187, N^5-[(trans)-2-(2-chloro-4-fluorophenyl)-1-oxo-2-azaspiro[4.5]dec-8-yl]-N^4-(1-methylazetidin-3-yl)-1H-imidazole-4,5-dicarboxamide] | 0.012 | ≥ 50
O=C(N[C@H]1CC[C@@]2(CCN(c3ccc(F)cc3Cl)C2=O)CC1)c1nc[nH]c1C(=O)NCC(F)(F)F [Example 195, N^4-[(trans)-2-(2-chloro-4-fluorophenyl)-1-oxo-2-azaspiro[4.5]dec-8-yl]-N^5-(2,2,2-trifluoroethyl)-1H-imidazole-4,5-dicarboxamide] | 0.011 | ≥ 50
CNC(=O)c1nc[nH]c1C(=O)N[C@H]1CC[C@H](C(=O)N(C)c2ccccc2C)CC1 [Example 203, N^4-methyl-N^5-{trans-4-[methyl(2-methylphenyl)carbamoyl]cyclohexyl}-1H-imidazole-4,5-dicarboxamide] | 0.63 | ≥ 50
O=C(N[C@H]1CC[C@H](C(=O)Nc2ccc(F)cc2Cl)CC1)c1cnn2ccccc12 [Example 205, N-{trans-4-[(2-chloro-4-fluorophenyl)carbamoyl]cyclohexyl}pyrazolo[1,5-a]pyridine-3-carboxamide] | > 10 | 25
O=C(N[C@H]1CC[C@H](C(=O)Nc2ccc(F)cc2Cl)CC1)c1cnc2ccccn12 [Example 206, N-{trans-4-[(2-chloro-4-fluorophenyl)carbamoyl]cyclohexyl}imidazo[1,2-a]pyridine-3-carboxamide] | > 10 | 25
Cc1cc(C)n2ncc(C(=O)N[C@H]3CC[C@]4(CCN(c5ccc(F)cc5)C4=O)CC3)c2n1 [Example 208, N-[(cis)-2-(4-fluorophenyl)-1-oxo-2-azaspiro[4.5]dec-8-yl]-5,7-dimethyl pyrazolo[1,5-a]pyrimidine-3-carboxamide] | 5.6 | ≥ 50
O=C(N[C@H]1CC[C@@]2(CCN(c3ccc(F)cc3)C2=O)CC1)c1cnn2cccnc12 [Example 209, N-[(trans)-2-(4-fluorophenyl)-1-oxo-2-azaspiro[4.5]dec-8-yl]pyrazolo[1,5-a]pyrimidine-3-carboxamide] | 1.2 | ≥ 50
Cc1cnc2c(C(=O)N[C@H]3CC[C@@]4(CCN(c5ccc(F)cc5)C4=O)CC3)cnn2c1 [Example 210, N-[(trans)-2-(4-fluorophenyl)-1-oxo-2-azaspiro[4.5]dec-8-yl]-6-methylpyrazolo[1,5-a]pyrimidine-3-carboxamide] | 0.39 | 25

The next lines start with results.

IC50 (TNKS1) [µM] | SMILES | IC50 [1] [µM]
2.2 | CNC(=O)c1nc[nH]c1C(=O)N[C@H]1CC[C@]2(CCN(c3ccc(F)cc3Cl)C2=O)CC1 [Example 182, N^5-[(cis)-2-(2-chloro-4-fluorophenyl)-1-oxo-2-azaspiro[4.5]dec-8-yl]-N^4-methyl-1H-imidazole-4,5-dicarboxamide] | ≥ 50
0.0067 | CNC(=O)c1nc[nH]c1C(=O)N[C@H]1CC[C@@]2(CCN(c3cc(F)c(F)cc3Cl)C2=O)CC1 [Example 196, N^5-[(trans)-2-(2-chloro-4,5-difluorophenyl)-1-oxo-2-azaspiro[4.5]dec-8-yl]-N^4-methyl-1H-imidazole-4,5-dicarboxamide] | 35
0.0045 | CCNC(=O)c1nc[nH]c1C(=O)N[C@H]1CC[C@@]2(CCN(c3cc(F)c(F)cc3Cl)C2=O)CC1 [Example 197, N^5-[(trans)-2-(2-chloro-4,5-difluorophenyl)-1-oxo-2-azaspiro[4.5]dec-8-yl]-N^4-ethyl-1H-imidazole-4,5-dicarboxamide] | 19
0.008 | CC(C)NC(=O)c1nc[nH]c1C(=O)N[C@H]1CC[C@@]2(CCN(c3cc(F)c(F)cc3Cl)C2=O)CC1 [Example 198, N^5-[(trans)-2-(2-chloro-4,5-difluorophenyl)-1-oxo-2-azaspiro[4.5]dec-8-yl]-N^4-(propan-2-yl)-1H-imidazole-4,5-dicarboxamide] | 19
0.0075 | O=C(NC1CC1)c1nc[nH]c1C(=O)N[C@H]1CC[C@@]2(CCN(c3cc(F)c(F)cc3Cl)C2=O)CC1 [Example 199, N^5-[(trans)-2-(2-chloro-4,5-difluorophenyl)-1-oxo-2-azaspiro[4.5]dec-8-yl]-N^4-cyclopropyl-1H-imidazole-4,5-dicarboxamide] | 21
0.0069 | O=C(N[C@H]1CC[C@@]2(CCN(c3cc(F)c(F)cc3Cl)C2=O)CC1)c1[nH]cnc1C(=O)N1CC(F)C1 [Example 200, N-[(trans)-2-(2-chloro-4,5-difluorophenyl)-1-oxo-2-azaspiro[4.5]dec-8-yl]-4-[(3-fluoroazetidin-1-yl)carbonyl]-1H-imidazole-5-carboxamide] | 30
0.0055 | O=C(NCC(F)(F)F)c1nc[nH]c1C(=O)N[C@H]1CC[C@@]2(CCN(c3cc(F)c(F)cc3Cl)C2=O)CC1 [Example 201, N^5-[(trans)-2-(2-chloro-4,5-difluorophenyl)-1-oxo-2-azaspiro[4.5]dec-8-yl]-N^4-(2,2,2-trifluoroethyl)-1H-imidazole-4,5-dicarboxamide] | 22
0.0073 | COCCNC(=O)c1nc[nH]c1C(=O)N[C@H]1CC[C@@]2(CCN(c3cc(F)c(F)cc3Cl)C2=O)CC1 [Example 202, N^5-[(trans)-2-(2-chloro-4,5-difluorophenyl)-1-oxo-2-azaspiro[4.5]dec-8-yl]-N^4-(2-methoxyethyl)-1H-imidazole-4,5-dicarboxamide] | 39
